Assays:
Human neutrophils [1] = experiment: Modified Boyden Chamber Chemotaxis (LTB4-induced); assay type: cell-based; settings: 3×10^-8 M LTB4; for Relative Potency, Chemotaxis: potency relative to compound 1 defined as 1.0
Method: Human neutrophils were isolated from citrated peripheral blood using standard techniques of dextran sedimentation, followed by centrifugation on Histopaque® sterile solution (Sigma) or Ficoll-paque® (Pharmacia) and hypotonic lysis of erythrocytes. A final cell suspension of 3.4×10^6 neutrophils/ml of HEPES-buffered Hanks balanced salt solution (HBSS, pH 7.3) was added to the upper well (0.8 ml) of a modified Boyden chamber (blind well). […] Percent inhibition was calculated from cell counts corrected for random migration by subtracting the mean of the HBSS control.

Human neutrophils [2] = experiment: Human Neutrophil Degranulation Assay (LTB4-induced myeloperoxidase release); assay type: cell-based; settings: LTB4 5×10^-8 M; for Relative Potency, Degranulation: potency relative to compound 1 defined as 1.0
Method: Neutrophils were purified from venous blood of normal human donors using standard techniques of dextran sedimentation, centrifugation on Ficoll-paque® (Pharmacia) or Histopaque® sterile solution (Sigma) and hypotonic lysis of erythrocytes (Boyum, A., Isolation of Leukocytes from Human Blood: Further Observations. Stand, J. Lab. Clin. Invest., 21 (Suppl. 97): 31, 1968). The purity of isolated neutrophils was >95%.
Neutrophil degranulation was determined by measuring the release of myeloperoxidase activity into the incubation medium. Neutrophils (3×10^6) in 1 ml HBSS solution were preincubated with cytochalasin B(5 μg) at 37° C. for 5 minutes, followed by preincubation with test compounds for 7 minutes. Neutrophils were then incubated for 2 to 20 minutes with LTB4 (5×10^-8 M) to induce degranulation. Following incubation, samples were centrifuged and myeloperoxidase was extracted from the cell pellets by sonication in phosphate buffer containing 0.4% Triton X-100. Triton X-100 was also added to the supernatants to a concentration of 0.4%. The supernatants and the pellet--extracts were then assayed spectrophotometrically for myeloperoxidase activity by determining the rate of decomposition of H2 O2 with o-dianisidine as hydrogen donor as described by Renlund, et al. (Renlund, D. G., MacFarlane, J. L., Christensen, R. D., Lynch, R. E., and Rothstein, G., A Quantitative and sensitive Method for Measurement of Myeloperoxidase, Clinical Research 28:75A, 1980). Myeloperoxidase activity released into the supernatant was expressed as the percent of the average total activity (pellet plus supernatant).

LTB4 receptor = target: T1, LTB4 receptor (Homo sapiens, UniProt Q15722); experiment: LTB4 Receptor Binding Assay; settings: potency relative to compound 1 defined as 1.0; (3H) LTB4 0.6×10^-9 M, human neutrophils
T1 construct: endogenous in cells; host or cells: neutrophils purified from venous blood of normal human donors (purity >95%)
T1 sequence (Q15722 whole entry): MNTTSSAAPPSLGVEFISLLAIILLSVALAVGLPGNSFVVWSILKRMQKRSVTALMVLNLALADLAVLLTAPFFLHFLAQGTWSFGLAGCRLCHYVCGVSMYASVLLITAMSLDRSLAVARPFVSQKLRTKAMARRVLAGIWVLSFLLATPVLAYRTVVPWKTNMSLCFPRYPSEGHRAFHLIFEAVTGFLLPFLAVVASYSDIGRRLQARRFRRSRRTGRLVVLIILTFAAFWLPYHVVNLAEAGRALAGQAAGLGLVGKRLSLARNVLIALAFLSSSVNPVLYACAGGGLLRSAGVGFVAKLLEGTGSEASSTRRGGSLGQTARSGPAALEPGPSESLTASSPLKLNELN
Method: Neutrophils (4-6×10^6) in 1 ml Hanks' balanced salt solution containing 10 mM HEPES buffer (HBSS), pH 7.4 and 30 μM nordihydroguaiaretic acid were incubated with 0.6×10^-9 M (3H) LTB4 in the presence or absence of test compounds. The incubation was carried out at 0° C. for 45 minutes and terminated by adding 5 ml of ice-cold HBSS followed by rapid filtration of incubation mixture under vacuum through GF/C glass fiber filters. The filters were further washed with 10 ml HBSS and radioactivity was determined. Specific binding was defined as the difference between total binding and nonspecific binding which was not displaced by 10^-7 M unlabeled LTB4. All data refer to specific binding.

Relative Potency, LTB4 Receptor Binding (LTB4 receptor)	IC50 (Human neutrophils [1]; Homo sapiens, Neutrophil)	IC50 (Human neutrophils [2]; Homo sapiens, Neutrophil)	Structure (SMILES)	Relative Potency, Chemotaxis (Human neutrophils [1])	Relative Potency, Degranulation (Human neutrophils [2])
0.8			C=CCc1c(OCCCOc2ccc3c(c2CCC)OC(c2nnn[nH]2)CC3)ccc(C(C)=O)c1OC (centres unmarked)	9	38
2			CCCc1c(OCCCOc2ccc(C(C)=O)c(OC)c2CC2CC2)ccc2c1OC(c1nnn[nH]1)CC2 (centres unmarked)	22.5	75
	1800 nM	1500 nM	CCCc1c(OCCCOc2ccc(C(C)=O)c(OC)c2CCC)ccc2c1OC(C(=O)O)CC2 (centres unmarked) [Compound 1, 7-[3,(4-acetyl-3-methoxy-2-propylphenoxy)propoxy]-3,4-dihydro-8-propyl-2H-1-benzopyran-2-carboxylic acid, reference compound]		
